Source: publication PMC3382171 (PLoS ONE, 2012)

Tests used:
Assay in all cases: biochemical
Parameters in all cases: Invitrogen SelectScreen kinase panel, percent inhibition at 1 uM, ATP at Km
Settings in all cases: read-out: Invitrogen KSS %Inh at 1 µM
ABL2 (Arg) = ABL2 (Arg) (Homo sapiens, UniProt P42684)
Method in brief: (§1)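 Commercial kinase panel screens run with ATP at the Km for each kinase. Compounds tested at 1 µM final concentration; values are % inhibition of phosphorylation relative to control.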

PRKG1 = PRKG1 (Homo sapiens, UniProt Q13976)
Method in brief: as §1

EPHA2 = EPHA2 (Homo sapiens, UniProt P29317)
Method in brief: as §1

PLK2 = PLK2 (Homo sapiens, UniProt Q9NYY3)
Method in brief: as §1

STK22B (TSSK2) = STK22B (TSSK2) (Homo sapiens, UniProt Q96PF2)
Method in brief: as §1

[1] = target: PIK3CA/PIK3R1 (p110 alpha/p85 alpha) (Homo sapiens, UniProt P42336)
Sequence of PIK3CA/PIK3R1 (p110 alpha/p85 alpha) (P42336 whole entry): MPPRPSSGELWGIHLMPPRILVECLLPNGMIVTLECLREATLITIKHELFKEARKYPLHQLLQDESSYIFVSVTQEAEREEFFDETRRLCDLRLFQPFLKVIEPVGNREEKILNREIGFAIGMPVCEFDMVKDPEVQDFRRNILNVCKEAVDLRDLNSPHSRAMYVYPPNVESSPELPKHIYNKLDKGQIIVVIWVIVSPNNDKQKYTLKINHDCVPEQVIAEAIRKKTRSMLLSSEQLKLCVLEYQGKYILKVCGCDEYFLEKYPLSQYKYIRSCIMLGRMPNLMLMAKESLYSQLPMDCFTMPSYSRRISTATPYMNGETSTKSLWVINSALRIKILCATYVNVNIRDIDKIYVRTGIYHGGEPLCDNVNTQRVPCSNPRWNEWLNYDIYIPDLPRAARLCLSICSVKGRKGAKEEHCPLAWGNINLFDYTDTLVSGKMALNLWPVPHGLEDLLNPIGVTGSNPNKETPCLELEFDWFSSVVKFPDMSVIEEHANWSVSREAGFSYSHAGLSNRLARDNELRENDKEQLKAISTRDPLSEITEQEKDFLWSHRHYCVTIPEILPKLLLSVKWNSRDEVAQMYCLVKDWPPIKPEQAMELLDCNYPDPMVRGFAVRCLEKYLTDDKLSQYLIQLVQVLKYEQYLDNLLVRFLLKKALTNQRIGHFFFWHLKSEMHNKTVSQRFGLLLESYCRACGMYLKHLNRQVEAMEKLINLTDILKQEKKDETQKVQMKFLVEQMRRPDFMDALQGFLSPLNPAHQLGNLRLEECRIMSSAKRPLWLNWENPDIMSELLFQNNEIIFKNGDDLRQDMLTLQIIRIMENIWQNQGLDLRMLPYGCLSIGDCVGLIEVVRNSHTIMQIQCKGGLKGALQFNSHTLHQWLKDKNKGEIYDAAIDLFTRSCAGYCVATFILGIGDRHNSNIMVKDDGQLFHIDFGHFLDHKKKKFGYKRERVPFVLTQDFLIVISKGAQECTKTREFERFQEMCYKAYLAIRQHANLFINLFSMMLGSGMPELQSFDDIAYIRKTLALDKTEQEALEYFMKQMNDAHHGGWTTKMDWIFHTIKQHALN
Sequence of PIK3CA/PIK3R1 (p110 alpha/p85 alpha) (P27986 whole entry partner): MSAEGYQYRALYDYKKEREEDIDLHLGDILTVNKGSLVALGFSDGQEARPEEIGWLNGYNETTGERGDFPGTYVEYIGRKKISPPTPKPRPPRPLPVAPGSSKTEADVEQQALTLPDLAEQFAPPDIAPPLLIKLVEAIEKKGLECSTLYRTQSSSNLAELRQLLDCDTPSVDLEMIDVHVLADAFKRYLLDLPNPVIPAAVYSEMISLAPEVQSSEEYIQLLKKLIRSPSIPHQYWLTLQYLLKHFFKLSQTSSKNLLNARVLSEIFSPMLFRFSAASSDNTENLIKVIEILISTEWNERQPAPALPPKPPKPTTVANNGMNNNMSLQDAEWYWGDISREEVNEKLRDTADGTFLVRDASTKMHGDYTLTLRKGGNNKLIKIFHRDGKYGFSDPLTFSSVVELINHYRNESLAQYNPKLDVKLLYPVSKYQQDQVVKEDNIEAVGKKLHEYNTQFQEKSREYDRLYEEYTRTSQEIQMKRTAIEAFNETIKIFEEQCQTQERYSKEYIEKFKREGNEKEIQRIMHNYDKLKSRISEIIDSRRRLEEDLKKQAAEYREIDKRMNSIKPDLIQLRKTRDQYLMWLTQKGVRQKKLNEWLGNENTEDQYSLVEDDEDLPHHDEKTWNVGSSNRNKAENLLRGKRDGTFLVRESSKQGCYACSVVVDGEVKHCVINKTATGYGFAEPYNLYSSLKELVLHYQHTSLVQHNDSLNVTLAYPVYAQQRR
Method in brief: as §1

HCK = HCK (Homo sapiens, UniProt P08631)
Sequence of HCK (P08631 whole entry): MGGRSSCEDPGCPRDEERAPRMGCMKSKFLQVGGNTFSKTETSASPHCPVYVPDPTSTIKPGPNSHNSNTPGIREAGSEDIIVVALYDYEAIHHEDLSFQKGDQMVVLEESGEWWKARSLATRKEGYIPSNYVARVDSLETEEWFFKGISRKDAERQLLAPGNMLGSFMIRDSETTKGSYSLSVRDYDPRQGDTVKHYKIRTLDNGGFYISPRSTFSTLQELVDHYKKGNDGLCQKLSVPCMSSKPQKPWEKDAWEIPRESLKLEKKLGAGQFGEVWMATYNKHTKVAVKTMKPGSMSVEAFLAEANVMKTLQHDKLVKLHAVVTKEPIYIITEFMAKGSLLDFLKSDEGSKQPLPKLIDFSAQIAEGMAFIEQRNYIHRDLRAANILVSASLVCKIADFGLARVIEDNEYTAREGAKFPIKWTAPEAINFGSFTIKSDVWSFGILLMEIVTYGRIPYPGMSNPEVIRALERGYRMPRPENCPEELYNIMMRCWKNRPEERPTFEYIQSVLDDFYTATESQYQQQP
Method in brief: as §1

FRAP1 (mTOR) = FRAP1 (mTOR) (Homo sapiens, UniProt P42345)
Method in brief: as §1

FER = FER (Homo sapiens, UniProt P16591)
Method in brief: as §1

PAK4 = PAK4 (Homo sapiens, UniProt O96013)
Sequence of PAK4 (O96013 whole entry): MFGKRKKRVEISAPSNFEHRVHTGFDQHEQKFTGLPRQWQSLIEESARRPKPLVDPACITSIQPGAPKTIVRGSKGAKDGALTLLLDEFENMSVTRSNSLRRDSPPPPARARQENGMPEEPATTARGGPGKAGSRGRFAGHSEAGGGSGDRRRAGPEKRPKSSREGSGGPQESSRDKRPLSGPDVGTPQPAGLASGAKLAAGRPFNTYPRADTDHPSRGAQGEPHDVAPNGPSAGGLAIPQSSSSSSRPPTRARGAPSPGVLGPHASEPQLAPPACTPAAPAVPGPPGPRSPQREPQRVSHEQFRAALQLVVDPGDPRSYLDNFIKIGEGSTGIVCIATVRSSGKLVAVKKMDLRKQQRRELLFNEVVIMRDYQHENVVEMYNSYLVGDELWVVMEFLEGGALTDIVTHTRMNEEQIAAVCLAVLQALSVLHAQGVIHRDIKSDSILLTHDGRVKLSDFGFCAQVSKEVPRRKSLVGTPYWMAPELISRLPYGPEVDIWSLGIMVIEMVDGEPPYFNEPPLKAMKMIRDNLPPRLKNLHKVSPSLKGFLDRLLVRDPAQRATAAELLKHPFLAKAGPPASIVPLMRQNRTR
Method in brief: as §1

JAK3 = JAK3 (Homo sapiens, UniProt P52333)
Method in brief: as §1

CLK1 = CLK1 (Homo sapiens, UniProt P49759)
Sequence of CLK1 (P49759 whole entry): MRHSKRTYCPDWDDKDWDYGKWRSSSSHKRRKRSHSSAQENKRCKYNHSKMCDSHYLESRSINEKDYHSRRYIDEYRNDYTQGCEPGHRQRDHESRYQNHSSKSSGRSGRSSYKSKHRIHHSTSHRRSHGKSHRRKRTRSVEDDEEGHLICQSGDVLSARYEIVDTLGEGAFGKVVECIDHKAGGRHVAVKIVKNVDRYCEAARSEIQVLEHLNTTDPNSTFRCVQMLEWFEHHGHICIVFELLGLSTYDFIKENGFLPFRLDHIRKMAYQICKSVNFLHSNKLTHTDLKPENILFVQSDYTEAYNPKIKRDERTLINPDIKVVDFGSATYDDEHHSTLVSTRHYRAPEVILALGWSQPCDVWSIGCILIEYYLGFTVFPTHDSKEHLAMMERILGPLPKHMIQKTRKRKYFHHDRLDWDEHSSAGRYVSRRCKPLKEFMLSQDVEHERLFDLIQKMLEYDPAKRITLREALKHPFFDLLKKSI
Method in brief: as §1

SYK = SYK (Homo sapiens, UniProt P43405)
Method in brief: as §1

BTK = BTK (Homo sapiens, UniProt Q06187)
Method in brief: as §1

PRKACA (PKA) = PRKACA (PKA) (Homo sapiens, UniProt P17612)
Method in brief: as §1

BMX = BMX (Homo sapiens, UniProt P51813)
Method in brief: as §1

PTK2B (FAK2) = PTK2B (FAK2) (Homo sapiens, UniProt Q14289)
Method in brief: as §1

IKBKB (IKK beta) = IKBKB (IKK beta) (Homo sapiens, UniProt O14920)
Sequence of IKBKB (IKK beta) (O14920 whole entry): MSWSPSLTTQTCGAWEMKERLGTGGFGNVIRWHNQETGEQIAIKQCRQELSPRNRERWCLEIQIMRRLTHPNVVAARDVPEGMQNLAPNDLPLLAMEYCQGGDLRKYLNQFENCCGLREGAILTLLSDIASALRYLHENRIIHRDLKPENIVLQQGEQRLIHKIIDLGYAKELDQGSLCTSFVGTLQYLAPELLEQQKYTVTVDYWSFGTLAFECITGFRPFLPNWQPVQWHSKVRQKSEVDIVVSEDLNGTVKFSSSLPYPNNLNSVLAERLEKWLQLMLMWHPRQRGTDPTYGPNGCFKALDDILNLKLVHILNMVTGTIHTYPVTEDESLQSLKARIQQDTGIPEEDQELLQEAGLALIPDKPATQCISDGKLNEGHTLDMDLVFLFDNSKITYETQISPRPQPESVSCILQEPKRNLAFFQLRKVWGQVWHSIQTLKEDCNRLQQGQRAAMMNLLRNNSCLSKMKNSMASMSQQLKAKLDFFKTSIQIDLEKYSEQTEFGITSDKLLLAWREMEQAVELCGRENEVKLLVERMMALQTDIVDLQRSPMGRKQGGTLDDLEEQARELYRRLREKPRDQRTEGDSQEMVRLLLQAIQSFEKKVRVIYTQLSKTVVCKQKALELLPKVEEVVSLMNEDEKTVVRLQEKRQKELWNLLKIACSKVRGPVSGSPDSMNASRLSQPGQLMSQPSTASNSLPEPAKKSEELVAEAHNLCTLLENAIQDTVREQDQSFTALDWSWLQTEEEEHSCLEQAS
Method in brief: as §1

MAPKAPK3 = MAPKAPK3 (Homo sapiens, UniProt Q16644)
Sequence of MAPKAPK3 (Q16644 whole entry): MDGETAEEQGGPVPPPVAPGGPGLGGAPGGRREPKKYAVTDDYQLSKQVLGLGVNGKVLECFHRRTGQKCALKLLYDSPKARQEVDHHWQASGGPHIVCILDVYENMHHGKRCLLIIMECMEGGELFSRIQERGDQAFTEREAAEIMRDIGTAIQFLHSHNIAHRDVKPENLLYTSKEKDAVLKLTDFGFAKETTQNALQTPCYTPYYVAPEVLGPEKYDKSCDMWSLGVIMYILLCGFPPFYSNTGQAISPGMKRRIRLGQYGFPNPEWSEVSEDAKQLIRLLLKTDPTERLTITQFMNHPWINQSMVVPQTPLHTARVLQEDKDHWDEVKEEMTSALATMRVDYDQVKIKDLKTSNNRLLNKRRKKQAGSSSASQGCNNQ
Method in brief: as §1

CDK5/p35 = target: T1, CDK5/p35 (Homo sapiens, UniProt Q00535)
T1 construct: p35
Method in brief: as §1

AKT2 (PKB beta) = AKT2 (PKB beta) (Homo sapiens, UniProt P31751)
Sequence of AKT2 (PKB beta) (P31751 whole entry): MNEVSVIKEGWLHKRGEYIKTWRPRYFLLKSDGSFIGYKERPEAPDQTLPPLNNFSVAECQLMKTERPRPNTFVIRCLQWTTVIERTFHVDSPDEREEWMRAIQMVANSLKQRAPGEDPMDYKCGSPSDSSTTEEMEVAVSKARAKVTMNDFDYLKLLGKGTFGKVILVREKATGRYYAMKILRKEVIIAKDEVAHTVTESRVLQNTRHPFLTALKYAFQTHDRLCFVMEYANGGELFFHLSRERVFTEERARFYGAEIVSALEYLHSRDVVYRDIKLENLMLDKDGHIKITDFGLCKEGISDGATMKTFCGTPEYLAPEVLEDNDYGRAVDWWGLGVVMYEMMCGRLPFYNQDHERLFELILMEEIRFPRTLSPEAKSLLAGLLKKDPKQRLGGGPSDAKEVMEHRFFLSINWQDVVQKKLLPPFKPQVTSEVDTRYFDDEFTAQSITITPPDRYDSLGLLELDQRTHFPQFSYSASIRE
Method in brief: as §1

NTRK2 (TRKB) = NTRK2 (TRKB) (Homo sapiens, UniProt Q16620)
Method in brief: as §1

ERBB4 (HER4) = ERBB4 (HER4) (Homo sapiens, UniProt Q15303)
Method in brief: as §1

inhibition at 1 µM (ABL2 (Arg)): -1%
inhibition at 1 µM (PRKG1): -3%
inhibition at 1 µM (EPHA2): -2%
inhibition at 1 µM (PLK2): 37%
inhibition at 1 µM (STK22B (TSSK2)): 2%
inhibition at 1 µM [1]: 35%
inhibition at 1 µM (HCK): 5%
inhibition at 1 µM (FRAP1 (mTOR)): -7%
inhibition at 1 µM (FER): -2%
inhibition at 1 µM (PAK4): 1%
inhibition at 1 µM (JAK3): 9%
inhibition at 1 µM (CLK1): 1%
inhibition at 1 µM (SYK): -35%
inhibition at 1 µM (BTK): -7%
inhibition at 1 µM (PRKACA (PKA)): -1%
inhibition at 1 µM (BMX): -3%
inhibition at 1 µM (PTK2B (FAK2)): 6%
inhibition at 1 µM (IKBKB (IKK beta)): 0%
inhibition at 1 µM (MAPKAPK3): 12%
inhibition at 1 µM (CDK5/p35): 9%
inhibition at 1 µM (AKT2 (PKB beta)): 6%
inhibition at 1 µM (NTRK2 (TRKB)): 23%
inhibition at 1 µM (ERBB4 (HER4)): 24%
SMILES: N#CCCNc1nccc(-c2cn(CC(F)F)nc2-c2cnc3[nH]ccc3c2)n1 [RAFi, PF-04880594]
